According to patent US20220062429A1, “METHOD FOR ENHANCING EXPRESSION OF MOISTURIZING-RELATED SUBSTANCE IN EPIDERMIS” (J-Network, Inc., priority 2020, published 2022):

Experiments:
Type in all cases: cell-based
filaggrin [1] = assay: Test 1 on promotion of filaggrin production: filaggrin immunostaining of human three-dimensional cultured epidermis model; conditions: 2%, 3.5% solutions in PBS(−) (Samples 2-4)
Description: After samples were prepared using a human epidermis model, production of filaggrin was observed by applying two staining methods, that is, an immunostaining method using an anti-filaggrin antibody and the method of Hematoxylin Eosin staining.
A human three-dimensional cultured epidermis model (hereinafter, “epidermis model”) (LabCyteEPI-MODEL24 6D: from Japan Tissue Engineering Co., Ltd.) was subjected to treatment in the following manner to prepare samples.
First, the epidermis model was incubated in an agar medium at room temperature for 24 hours. Thereafter, the epidermis model was cultured in a medium (an assay medium: from Japan Tissue Engineering Co., Ltd.) at 37° C. for 48 hours. […]
Thereafter, an anti-filaggrin antibody (from GeneTex, Inc.) was made to react with that section at 37° C. overnight, and an anti-mouse IgG Alexa Fluor (registered trademark) 488 antibody (from Cell Signaling Technology, Inc.) was further made to react at 37° C. for 2 hours. […] Then, green fluorescence and blue fluorescence were observed using a fluorescence microscope. The green fluorescence indicates the presence of filaggrin. The blue fluorescence is for confirming that there is no abnormality in cells of the epidermis model.

filaggrin [2] = assay: Test 2 on promotion of filaggrin production: dot blotting in normal human epidermal cells; conditions: 72 hours
Description: After samples were prepared using human epidermal cells, production of filaggrin was observed by dot blotting and the quantity of filaggrin was determined.
Normal human epidermal cells (hereinafter, “epidermal cells”) (from Kurabo Industries Ltd.) were seeded at a cell density of 1.0×10^4 cells/well in a 96-well culture plate using a growth medium (KG2 medium: from Kurabo Industries Ltd.). After the cells were cultured at 37° C. under 5% carbon dioxide for 24 hours, the medium was replaced with media (KB2 media not containing bovine pituitary extract: from Kurabo Industries Ltd.) to which Samples 5 to 10 described below were respectively added. Each of Samples 5 and 8 as controls is a medium only. Samples 6, 7, 9, and 10 are different from one another in the type and/or concentration (mass % with respect to the medium) of a diacylglycerol PEG adduct to be added to the medium. • Sample 5: Control (N.C.) • Sample 6: GDM12 (0.0005%) • Sample 7: GDM12 (0.0010%) • Sample 8: Control (N.C.) • Sample 9: GDS23 (0.0025%) • Sample 10: GDS23 (0.0050%)
Thereafter, for each sample, the epidermal cells were cultured at 37° C. under 5% carbon dioxide for 72 hours. Subsequently, the epidermal cells were cleaned with PBS(−), 0.5% Triton X-100 (containing 2 mM PMSF) was then added, and thereafter the cells were disrupted by sonication.
A fixed amount of the suspension of disrupted cells was blotted on a nitrocellulose membrane and dried overnight. The transfer membrane after drying was immersed in a PBS solution of 1% BSA and blocked at room temperature for 1 hour. Thereafter, the membrane was cleaned with PBS(−), and an anti-human filaggrin antibody (Anti-Filaggrin: from ARGENE SA) was added onto the transfer membrane at a dilution concentration of 1:4000. The mixture was made to react at room temperature for 1 hour, and then the transfer membrane was cleaned with a PBS solution.
Thereafter, an immunohistochemical staining reagent (Histofine Simple Stain MAX-PO(M): from Nichirei Biosciences Inc.) was added onto the transfer membrane at a dilution concentration of 1:100 and was made to react at room temperature for 1 hour. […]
The brightness of each spot in the spot image obtained by dot blotting was quantitively determined using an analyzer (CS Analyzer Version 2.0: from ATTO Corporation).
FIG. 2a illustrates respective spot images for Samples 5, 6 and 7 related to GDM12, and FIG. 2b illustrates the production quantity of filaggrin for each sample determined based on FIG. 2a. The vertical axis of the graph represents the relative quantity when the quantity for the control N.C. is assumed as 100% (the same representation is also applied to graphs in drawings that will be described later).

profilaggrin mRNA = assay: Amplification test of profilaggrin mRNA (quantitative real-time PCR) in normal human epidermal cells; conditions: for expression of profilaggrin mRNA, relative to N.C. = 100%: corrected with cyclophilin
Description: After samples were prepared using human epidermal cells, RNA of the cells was extracted and the quantity of mRNA of profilaggrin was determined.
Normal human epidermal cells (hereinafter, “epidermal cells”) (from Kurabo Industries Ltd.) were seeded at a cell density of 2.0×10^4 cells/well in a 96-well culture plate using a growth medium (KG2 medium: from Kurabo Industries Ltd.). After the cells were cultured at 37° C. under 5% carbon dioxide for 24 hours, the media were replaced with media (KB2 media not containing bovine pituitary extract: from Kurabo Industries Ltd.) to which Samples 11 to 18 described below were respectively added. Each of Samples 11, 14, and 17 as controls is a medium only. Samples 12, 13, 15, 16, and 18 are different from one another in the type and/or concentration (mass % with respect to the medium) of a diacylglycerol PEG adduct. • Sample 11: Control (N.C.) • Sample 12: GDS12 (0.100%) • Sample 13: GDS12 (0.050%) • Sample 14: Control (N.C.) • Sample 15: GDM12 (0.001%) • Sample 16: GDM12 (0.004%) • Sample 17: Control (N.C.) • Sample 18: GDS23 (0.002%)
Thereafter, the epidermal cells were cultured at 37° C. under 5% carbon dioxide for 3 hours. Subsequently, RNA was extracted from the cells.
(§1) Reverse transcription of the extracted RNA was performed to generate cDNA, and the quantity of profilaggrin mRNA was determined by quantitative real-time PCR expression analysis. Cyclophilin was used as an internal standard. In the analysis, the expression level of profilaggrin was corrected with a value of the expression level of cyclophilin as the internal standard in the same sample, and thereafter the correction value for each sample was calculated assuming the correction value for the control N.C. as 100%.

caspase-14 mRNA = assay: Caspase-14 mRNA expression (quantitative real-time PCR) in normal human epidermal cells; conditions: for expression of caspase-14 mRNA versus N.C. / expression of caspase-14 mRNA, relative to N.C. = 100%: 3 hours; for expression of caspase-14 mRNA, relative to N.C. = 100%: corrected with cyclophilin
Description: After samples were prepared using human epidermal cells, RNA of the cells was extracted and the quantity of caspase-14 mRNA was determined.
Normal human epidermal cells (hereinafter, “epidermal cells”) (from Kurabo Industries Ltd.) were seeded at a cell density of 2.0×10^4 cells/well in a 96-well culture plate using a growth medium (KG2 medium: from Kurabo Industries Ltd.). After the cells were cultured at 37° C. under 5% carbon dioxide for 24 hours, the media were replaced with media (KB2 media not containing bovine pituitary extract: from Kurabo Industries Ltd.) to which Samples 19 to 26 described below were respectively added. Each of Samples 19 and 24 as controls is a medium only. Samples 20, 21, 22, 23, and 25 are different from one another in the type and/or concentration (mass % with respect to the medium) of a diacylglycerol PEG adduct contained in the medium. • Sample 19: Control (N.C.) • Sample 20: GDM12 (0.001%) • Sample 21: GDM12 (0.004%) • Sample 22: GDM12 (0.020%) • Sample 23: GDM12 (0.100%) • Sample 24: Control (N.C.) • Sample 25: GDS23 (0.0004%)
Subsequently, the epidermal cells were cultured at 37° C. under 5% carbon dioxide for 3 hours. Subsequently, RNA was extracted from the cells.
as §1, with “of caspase-14” for “of profilaggrin”, “value of” for “value for”, “was calculated,” for “was calculated”, “control sample” for “control N.C.”

Substance: PEG-12 glycerol dimyristate [GDM12]
- concentration dependence of production quantity of filaggrin (filaggrin [1]): more as the concentration of the GDM12 solution is higher
- production quantity of filaggrin in the stratum corneum (green fluorescence) versus N.C. (filaggrin [1]; 30 μL on stratum corneum, 18 hours, model recovered 6 days after application): more than that of the epidermis model of N.C.
- production quantity of filaggrin, relative to N.C. = 100% (filaggrin [2]; 0.0005% in medium (Sample 6)): ≥ 200%
- production quantity of filaggrin, relative to N.C. = 100% (filaggrin [2]; 0.0010% in medium (Sample 7)): ≥ 200%
- increase of expression of profilaggrin mRNA versus N.C. (profilaggrin mRNA; 0.001% in medium (Sample 15), 3 hours): slight
- expression of profilaggrin mRNA, relative to N.C. = 100% (profilaggrin mRNA; 0.004% in medium (Sample 16), 3 hours): about 150%
- expression of caspase-14 mRNA versus N.C. (caspase-14 mRNA; 0.001% in medium (Sample 20)): increased
- expression of caspase-14 mRNA versus N.C. (caspase-14 mRNA; 0.004% in medium (Sample 21)): increased
- expression of caspase-14 mRNA, relative to N.C. = 100% (caspase-14 mRNA; 0.020% in medium (Sample 22)): about 200%
- expression of caspase-14 mRNA, relative to N.C. = 100% (caspase-14 mRNA; 0.100% in medium (Sample 23)): about 400%
- concentration dependence of increase of caspase-14 mRNA (caspase-14 mRNA; Samples 20-23 (0.001% to 0.100%)): the increase is larger as the concentration of GDM12 is higher

Substance: PEG-12 glycerol distearate [GDS12]
- expression of profilaggrin mRNA, relative to N.C. = 100% (profilaggrin mRNA; 0.050% in medium (Sample 13), 3 hours): about 150%
- expression of profilaggrin mRNA, relative to N.C. = 100% (profilaggrin mRNA; 0.100% in medium (Sample 12), 3 hours): about 150%
- concentration dependence of increase of profilaggrin mRNA (profilaggrin mRNA; Samples 12 and 13 (0.100%, 0.050%)): the increase is larger as the concentration of GDS12 is higher

Substance: PEG-23 glycerol distearate [GDS23]
- production quantity of filaggrin, relative to N.C. = 100% (filaggrin [2]; 0.0025% in medium (Sample 9)): about 200%
- production quantity of filaggrin, relative to N.C. = 100% (filaggrin [2]; 0.0050% in medium (Sample 10)): about 200%
- expression of profilaggrin mRNA, relative to N.C. = 100% (profilaggrin mRNA; 0.002% in medium (Sample 18), 3 hours): about 120%
- expression of caspase-14 mRNA, relative to N.C. = 100% (caspase-14 mRNA; 0.0004% in medium (Sample 25)): about 150%
